From patent US10342758B2, “Cationic lipid” (Kyowa Hakko Kirin Co., Ltd., priority 2012, dated 2019)

Experiments:
[1] = Average particle diameter of preparation (Zetasizer Nano ZS); type: physicochemical; conditions: preparation with apo-b siRNA; compound/PEG-DMPE Na/DSPC/cholesterol; Example 49 / Comparative Example 1
[2] = as above; type: physicochemical; conditions: preparation with f7 siRNA
Protocol: The average particle diameter of each preparation (composition) was measured using a particle diameter measurement device (Zetasizer Nano ZS, manufactured by Malvern, hereafter the same).
The average particle diameter of each preparation (composition) was measured using a particle diameter measurement device.
Each sample was weighed and suspended in an aqueous solution containing hydrochloric acid and ethanol so that the ratio of Compound A-1/PEG-DMPE Na (manufactured by NOF Corporation) was 57.3/5.52 mmol/L, and then, the resulting mixture was repeatedly subjected to stirring using a vortex stirring mixer and heating, whereby a uniform suspension was obtained. This suspension was passed through a 0.2-μm polycarbonate membrane filter and thereafter passed through a 0.05-μm polycarbonate membrane filter at room temperature, whereby a dispersion liquid of particles (liposome) of Compound A-1/PEG-DMPE Na was obtained. The average particle diameter of the obtained liposome was measured using a particle diameter measuring apparatus to confirm that the average particle diameter was within the range from 30 nm to 100 nm. In the obtained dispersion liquid of liposome, the f7 siRNA solution was mixed at a ratio of the dispersion liquid of liposome to the fl siRNA solution of 3:1, and then, distilled water that was three times the amount was added thereto and mixed therewith, whereby a dispersion liquid of Compound A-1/PEG-DMPE Na/f7 siRNA complex was prepared.
The average particle diameter of the preparation (composition) was measured using a particle diameter measurement device.

apo-b gene mRNA = experiment: Expression ratio of apo-b mRNA after introduction of preparations into HepG2 cells; type: cell-based, human; conditions: nucleic acid 3 to 100 nM, 24 hours, composition with apo-b siRNA (FIG. 1)
Description: Each of the preparation: obtained in Example 49 (the compositions containing any of Compounds A-1, and A-3 to A-5, and the nucleic acid) and the preparations obtained in Comparative Example 1 (the compositions containing any of DLin-KC2-DMA and Compounds XI-1 to XI-3, and the nucleic acid) was introduced into cells of human liver cancer-derived cell line HepG2 (HB-8065) by the following method.
Each preparation diluted with Opti-MEM (GIBCO Co., Ltd., 31985) so that the final concentration of the nucleic acid was 3 to 100 nM was dispensed in a 96-well culture plate at 20 μL/well. […]
By using the obtained cDNA as a template and also using a universal probe library (Roche Applied Science, Inc., 04683633001) as the probe and ABI7900HT Fast (manufactured by ABI, Inc.), a PCR reaction was performed according to the method described in the protocol attached thereto, so that the apo-b gene and D-glyceraldehyde-3-phosphate dehydrogenase (hereinafter, represented by “gapdh”) gene, which is a constitutively expressed gene, were subjected to the PCR reaction. Then, the amount of the amplified mRNA was measured for each gene, and a quasi-quantitative value of the apo-b mRNA was calculated using the amount of the amplified gapdh mRNA as the internal control. […]

[3] = compound/PEG-DMPE Na/DSPC/cholesterol, Examples 50, 51 / Comparative Example 2
[4] = liposome/siRNA complex encapsulated by lipid membrane, Examples 52, 53 / Comparative Example 3

CCCCCC/C=C\CCCCCCCCN(CCCCCCCC/C=C\CCCCCC)C(=O)OCCCN(C)C [Compound A-3, 3-(Dimethylamino)propyl di(Z)-hexadec-9-enyl) carbamate]
Particle diameter of Preparation obtained [1]: 150.0 nm

CCCCC/C=C\C/C=C\CCCCCCCCN(CCCO)CCCCCCCC/C=C\C/C=C\CCCCC [Compound C-1, 3-(Di((9Z,12Z)-octadeca-9,12-dienyl)amino)propan-1-ol]
Particle diameter of Preparation obtained [2, 3]: 124.3 nm
Particle diameter of Preparation obtained [2, 4]: 88.3 nm

CCCCCCCC/C=C\CCCCCCCCN(CCCO)CCCCCCCC/C=C\CCCCCCCC [Compound C-2, 3-(Di((Z)-octadec-9-enyl)amino)propan-1-ol]
Particle diameter of Preparation obtained [2, 3]: 125.4 nm
Particle diameter of Preparation obtained [2, 4]: 91.9 nm

CCCCC/C=C\C/C=C\CCCCCCCCCCN(CCCO)CCCCCCCCCC/C=C\C/C=C\CCCCC [Compound C-3, 3-(Di((11Z,14Z)-icosa-11,14-dienyl)amino)propan-1-ol]
Particle diameter of Preparation obtained [2, 3]: 138.4 nm
Particle diameter of Preparation obtained [2, 4]: 94.1 nm

CCCCC/C=C\C/C=C\CCCCCCCCN(CCO)CCCCCCCC/C=C\C/C=C\CCCCC [Compound C-4, 2-(Di((9Z,12Z)-octadeca-9,12-dienyl)amino)ethanol]
Particle diameter of Preparation obtained [2, 3]: 137.3 nm
Particle diameter of Preparation obtained [2, 4]: 98.8 nm

CCCCC/C=C\C/C=C\CCCCCCCCN(CCCCO)CCCCCCCC/C=C\C/C=C\CCCCC [Compound C-5, 4-(Di((9Z,12Z)-octadeca-9,12-dienyl)amino)butan-1-ol]
Particle diameter of Preparation obtained [2, 3]: 134.9 nm
Particle diameter of Preparation obtained [2, 4]: 96.4 nm

CCCCC/C=C\C/C=C\CCCCCCCCN(CCCCCCCC/C=C\C/C=C\CCCCC)C(=O)CCCCN(C)C [Compound XI-2, 5-(Dimethylamino)-N,N-di((9Z,12Z)-octadeca-9,12-dienyl)pentanamide]
expression of the apo-b gene mRNA (apo-b gene mRNA): did not suppress the expression of the apo-b gene mRNA

CCCCC/C=C\C/C=C\CCCCCCCCOCCN(CCOCCCCCCCC/C=C\C/C=C\CCCCC)C(=O)OCCCN(C)C [Compound XI-5, 3-(Dimethylamino)propyl bis(2-((9Z,12Z)-octadeca-9,12-dienyloxy)ethyl)carbamate, reference compound]
Particle diameter of Preparation obtained [2, 3]: 114.1 nm

CCCCC/C=C\C/C=C\CCCCCCCCN(CCCCCCCC/C=C\C/C=C\CCCCC)CC(O)CO (stereo not shown) [Compound XI-7, 3-(Di((9Z,12Z)-octadeca-9,12-dienyl)amino)propane-1,2-diol, reference compound]
Particle diameter of Preparation obtained [2, 3]: 142.8 nm

CCCCC/C=C\C/C=C\CCCCCCCCO[C@@H]1CN(CCCO)C[C@H]1OCCCCCCCC/C=C\C/C=C\CCCCC [Compound XI-8, 3-((3R,4R)-3,4-Bis((9Z,12Z)-octadeca-9,12-dienyloxy)pyrrolidin-1-yl)propan-1-ol, reference compound]
Particle diameter of Preparation obtained [2, 3]: 128.0 nm

CCCCC/C=C\C/C=C\CCCCCCCCOCC(CN(C)C(=O)OCCCN(C)C)OCCCCCCCC/C=C\C/C=C\CCCCC (stereo not shown) [Compound XI-9, 3-(Dimethylamino)propyl 2,3-bis((9Z,12Z)-octadeca-9,12-dienyloxy)propyl(methyl)carbamate, reference compound]
Particle diameter of Preparation obtained [2, 4]: 116.2 nm
